# *1 amine or outer side, *2 acyl side, *3 side chain or, on linkers, in order; H or OH if unused. Where a SMILES comes first, the peptide text is derived from it. [ ]: non-standard residue; d: D form. X1 = N=C(NCCC[C@H](N[*:1])C(=O)[*:2])N[C@@H]1O[C@H](CO)[C@@H](O)[C@H](O)[C@H]1O; X7 = N=C(NCCC[C@H](N[*:1])C(=O)[*:2])N[C@H]1O[C@H](CO)[C@@H](O)[C@H](O)[C@@H]1O; X5 = N=C(NCCC[C@H](N[*:1])C(=O)[*:2])N[C@@H]1OC[C@@H](O)[C@H](O)[C@H]1O
# Test: Cytotoxicity against C57BL/6 mouse Pre-Osteoblast cells assessed as cell death upto 5 uM incubated for 4 days by CCK-8 assay
# Type: toxicity, cell-based
# Settings: 96 h, time 4 day
row,SMILES,Activity
1,CC[C@H](C)[C@H](NC(=O)[C@H](CCC(=O)O)NC(=O)[C@H](CO)NC(=O)[C@@H](NC(=O)[C@H](CO)NC(C)=O)C(C)C)C(=O)N[C@@H](CCC(N)=O)C(=O)N[C@@H](CC(C)C)C(=O)N[C@@H](CCSC)C(=O)N[C@@H](Cc1cnc[nH]1)C(=O)N[C@@H](CC(N)=O)C(=O)N[C@@H](CC(C)C)C(=O)NCC(=O)N[C@@H](CCCCN)C(=O)N[C@@H](Cc1cnc[nH]1)C(=O)N[C@@H](CC(C)C)C(=O)N[C@@H](CC(N)=O)C(=O)N[C@@H](CO)C(=O)N[C@@H](CCSC)C(=O)N[C@@H](CCC(=O)O)C(=O)N[C@@H](CCCNC(=N)N[C@@H]1OC[C@@H](O)[C@H](O)[C@H]1O)C(=O)N[C@H](C(=O)N[C@@H](CCC(=O)O)C(=O)N[C@@H](Cc1c[nH]c2ccccc12)C(=O)N[C@@H](CC(C)C)C(=O)N[C@@H](CCCNC(=N)N[C@@H]1OC[C@@H](O)[C@H](O)[C@H]1O)C(=O)N[C@@H](CCCCN)C(=O)N[C@@H](CCCCN)C(=O)N[C@@H](CC(C)C)C(=O)N[C@@H](CCC(N)=O)C(=O)N[C@@H](CC(=O)O)C(=O)N[C@H](C(=O)N[C@@H](Cc1cnc[nH]1)C(=O)N[C@@H](CC(N)=O)C(=O)N[C@@H](Cc1ccccc1)C(N)=O)C(C)C)C(C)C (Ac-SVSEIQLMHNLGKHLNSME[X5]VEWL[X5]KKLQDVHNF-NH2),Non-Toxic
2,CC[C@H](C)[C@H](NC(=O)[C@H](CCC(=O)O)NC(=O)[C@H](CO)NC(=O)[C@@H](NC(=O)[C@H](CO)NC(C)=O)C(C)C)C(=O)N[C@@H](CCC(N)=O)C(=O)N[C@@H](CC(C)C)C(=O)N[C@@H](CCSC)C(=O)N[C@@H](Cc1cnc[nH]1)C(=O)N[C@@H](CC(N)=O)C(=O)N[C@@H](CC(C)C)C(=O)NCC(=O)N[C@@H](CCCCN)C(=O)N[C@@H](Cc1cnc[nH]1)C(=O)N[C@@H](CC(C)C)C(=O)N[C@@H](CC(N)=O)C(=O)N[C@@H](CO)C(=O)N[C@@H](CCSC)C(=O)N[C@@H](CCC(=O)O)C(=O)N[C@@H](CCCNC(=N)N[C@@H]1O[C@H](CO)[C@@H](O)[C@H](O)[C@H]1O)C(=O)N[C@H](C(=O)N[C@@H](CCC(=O)O)C(=O)N[C@@H](Cc1c[nH]c2ccccc12)C(=O)N[C@@H](CC(C)C)C(=O)N[C@@H](CCCNC(=N)N[C@@H]1O[C@H](CO)[C@@H](O)[C@H](O)[C@H]1O)C(=O)N[C@@H](CCCCN)C(=O)N[C@@H](CCCCN)C(=O)N[C@@H](CC(C)C)C(=O)N[C@@H](CCC(N)=O)C(=O)N[C@@H](CC(=O)O)C(=O)N[C@H](C(=O)N[C@@H](Cc1cnc[nH]1)C(=O)N[C@@H](CC(N)=O)C(=O)N[C@@H](Cc1ccccc1)C(N)=O)C(C)C)C(C)C (Ac-SVSEIQLMHNLGKHLNSME[X1]VEWL[X1]KKLQDVHNF-NH2),Non-Toxic
3,CC[C@H](C)[C@H](NC(=O)[C@H](CCC(=O)O)NC(=O)[C@H](CO)NC(=O)[C@@H](NC(=O)[C@H](CO)NC(C)=O)C(C)C)C(=O)N[C@@H](CCC(N)=O)C(=O)N[C@@H](CC(C)C)C(=O)N[C@@H](CCSC)C(=O)N[C@@H](Cc1cnc[nH]1)C(=O)N[C@@H](CC(N)=O)C(=O)N[C@@H](CC(C)C)C(=O)NCC(=O)N[C@@H](CCCCN)C(=O)N[C@@H](Cc1cnc[nH]1)C(=O)N[C@@H](CC(C)C)C(=O)N[C@@H](CC(N)=O)C(=O)N[C@@H](CO)C(=O)N[C@@H](CCSC)C(=O)N[C@@H](CCC(=O)O)C(=O)N[C@@H](CCCNC(=N)N)C(=O)N[C@H](C(=O)N[C@@H](CCC(=O)O)C(=O)N[C@@H](Cc1c[nH]c2ccccc12)C(=O)N[C@@H](CC(C)C)C(=O)N[C@@H](CCCNC(=N)N[C@@H]1O[C@H](CO)[C@@H](O)[C@H](O)[C@H]1NC(C)=O)C(=O)N[C@@H](CCCCN)C(=O)N[C@@H](CCCCN)C(=O)N[C@@H](CC(C)C)C(=O)N[C@@H](CCC(N)=O)C(=O)N[C@@H](CC(=O)O)C(=O)N[C@H](C(=O)N[C@@H](Cc1cnc[nH]1)C(=O)N[C@@H](CC(N)=O)C(=O)N[C@@H](Cc1ccccc1)C(N)=O)C(C)C)C(C)C,Non-Toxic
4,CC[C@H](C)[C@H](NC(=O)[C@H](CCC(=O)O)NC(=O)[C@H](CO)NC(=O)[C@@H](NC(=O)[C@H](CO)NC(C)=O)C(C)C)C(=O)N[C@@H](CCC(N)=O)C(=O)N[C@@H](CC(C)C)C(=O)N[C@@H](CCSC)C(=O)N[C@@H](Cc1cnc[nH]1)C(=O)N[C@@H](CC(N)=O)C(=O)N[C@@H](CC(C)C)C(=O)NCC(=O)N[C@@H](CCCCN)C(=O)N[C@@H](Cc1cnc[nH]1)C(=O)N[C@@H](CC(C)C)C(=O)N[C@@H](CC(N)=O)C(=O)N[C@@H](CO)C(=O)N[C@@H](CCSC)C(=O)N[C@@H](CCC(=O)O)C(=O)N[C@@H](CCCNC(=N)N[C@H]1O[C@H](CO)[C@@H](O)[C@H](O)[C@@H]1O)C(=O)N[C@H](C(=O)N[C@@H](CCC(=O)O)C(=O)N[C@@H](Cc1c[nH]c2ccccc12)C(=O)N[C@@H](CC(C)C)C(=O)N[C@@H](CCCNC(=N)N)C(=O)N[C@@H](CCCCN)C(=O)N[C@@H](CCCCN)C(=O)N[C@@H](CC(C)C)C(=O)N[C@@H](CCC(N)=O)C(=O)N[C@@H](CC(=O)O)C(=O)N[C@H](C(=O)N[C@@H](Cc1cnc[nH]1)C(=O)N[C@@H](CC(N)=O)C(=O)N[C@@H](Cc1ccccc1)C(N)=O)C(C)C)C(C)C,Non-Toxic
5,CC[C@H](C)[C@H](NC(=O)[C@H](CCC(=O)O)NC(=O)[C@H](CO)NC(=O)[C@@H](NC(=O)[C@H](CO)NC(C)=O)C(C)C)C(=O)N[C@@H](CCC(N)=O)C(=O)N[C@@H](CC(C)C)C(=O)N[C@@H](CCSC)C(=O)N[C@@H](Cc1cnc[nH]1)C(=O)N[C@@H](CC(N)=O)C(=O)N[C@@H](CC(C)C)C(=O)NCC(=O)N[C@@H](CCCCN)C(=O)N[C@@H](Cc1cnc[nH]1)C(=O)N[C@@H](CC(C)C)C(=O)N[C@@H](CC(N)=O)C(=O)N[C@@H](CO)C(=O)N[C@@H](CCSC)C(=O)N[C@@H](CCC(=O)O)C(=O)N[C@@H](CCCNC(=N)N)C(=O)N[C@H](C(=O)N[C@@H](CCC(=O)O)C(=O)N[C@@H](Cc1c[nH]c2ccccc12)C(=O)N[C@@H](CC(C)C)C(=O)N[C@@H](CCCNC(=N)N[C@@H]1OC[C@@H](O)[C@H](O)[C@H]1O)C(=O)N[C@@H](CCCCN)C(=O)N[C@@H](CCCCN)C(=O)N[C@@H](CC(C)C)C(=O)N[C@@H](CCC(N)=O)C(=O)N[C@@H](CC(=O)O)C(=O)N[C@H](C(=O)N[C@@H](Cc1cnc[nH]1)C(=O)N[C@@H](CC(N)=O)C(=O)N[C@@H](Cc1ccccc1)C(N)=O)C(C)C)C(C)C,Non-Toxic
6,CC[C@H](C)[C@H](NC(=O)[C@H](CCC(=O)O)NC(=O)[C@H](CO)NC(=O)[C@@H](NC(=O)[C@H](CO)NC(C)=O)C(C)C)C(=O)N[C@@H](CCC(N)=O)C(=O)N[C@@H](CC(C)C)C(=O)N[C@@H](CCSC)C(=O)N[C@@H](Cc1cnc[nH]1)C(=O)N[C@@H](CC(N)=O)C(=O)N[C@@H](CC(C)C)C(=O)NCC(=O)N[C@@H](CCCCN)C(=O)N[C@@H](Cc1cnc[nH]1)C(=O)N[C@@H](CC(C)C)C(=O)N[C@@H](CC(N)=O)C(=O)N[C@@H](CO)C(=O)N[C@@H](CCSC)C(=O)N[C@@H](CCC(=O)O)C(=O)N[C@@H](CCCNC(=N)N[C@H]1O[C@H](CO)[C@@H](O)[C@H](O)[C@@H]1O)C(=O)N[C@H](C(=O)N[C@@H](CCC(=O)O)C(=O)N[C@@H](Cc1c[nH]c2ccccc12)C(=O)N[C@@H](CC(C)C)C(=O)N[C@@H](CCCNC(=N)N[C@H]1O[C@H](CO)[C@@H](O)[C@H](O)[C@@H]1O)C(=O)N[C@@H](CCCCN)C(=O)N[C@@H](CCCCN)C(=O)N[C@@H](CC(C)C)C(=O)N[C@@H](CCC(N)=O)C(=O)N[C@@H](CC(=O)O)C(=O)N[C@H](C(=O)N[C@@H](Cc1cnc[nH]1)C(=O)N[C@@H](CC(N)=O)C(=O)N[C@@H](Cc1ccccc1)C(N)=O)C(C)C)C(C)C (Ac-SVSEIQLMHNLGKHLNSME[X7]VEWL[X7]KKLQDVHNF-NH2),Non-Toxic
